Our source for the inhibition values is patent US8440660B2 (Santen Pharmaceutical Co., Ltd., priority 2006, dated 2013).

For the test, the target named is T1, Glucocorticoid Receptor (GR) (Homo sapiens, UniProt P04150).
T1 construct: purchased Invitrogen P2816
T1 sequence (P04150 1-777): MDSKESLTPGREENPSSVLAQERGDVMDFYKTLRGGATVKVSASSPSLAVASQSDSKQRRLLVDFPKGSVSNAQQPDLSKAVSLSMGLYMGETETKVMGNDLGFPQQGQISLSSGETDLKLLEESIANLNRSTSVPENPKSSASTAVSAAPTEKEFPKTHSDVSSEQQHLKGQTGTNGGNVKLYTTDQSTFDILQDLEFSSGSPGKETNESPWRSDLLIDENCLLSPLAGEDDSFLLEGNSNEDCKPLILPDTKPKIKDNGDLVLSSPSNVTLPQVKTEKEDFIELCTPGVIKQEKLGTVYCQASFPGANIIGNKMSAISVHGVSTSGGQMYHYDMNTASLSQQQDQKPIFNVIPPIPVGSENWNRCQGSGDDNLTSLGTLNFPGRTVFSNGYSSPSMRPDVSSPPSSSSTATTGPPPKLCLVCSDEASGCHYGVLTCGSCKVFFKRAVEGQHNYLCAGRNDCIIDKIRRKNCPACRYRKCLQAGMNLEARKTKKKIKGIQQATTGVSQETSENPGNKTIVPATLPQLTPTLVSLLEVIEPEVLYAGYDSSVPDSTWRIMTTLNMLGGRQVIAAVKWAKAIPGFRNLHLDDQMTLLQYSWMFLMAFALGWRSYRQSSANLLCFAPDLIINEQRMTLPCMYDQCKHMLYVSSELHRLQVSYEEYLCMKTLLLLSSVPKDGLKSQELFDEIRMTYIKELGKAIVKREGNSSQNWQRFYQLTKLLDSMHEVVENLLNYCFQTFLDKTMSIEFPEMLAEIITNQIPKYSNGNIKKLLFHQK
The experiment in a line: GR receptor competitor assay by fluorescence polarization (Invitrogen GR competitor assay kit, cat No. P2816). Particulars: 20 μM test compound solution, 10 μL per well plus 5 μL 4×GS1 and 5 μL 4×GR solution; recombinant human GR; 2 to 4 hours at room temperature; a ratio of 100% or more is indicated by 100%; read-out: GR Binding ratio (%). The procedure:
A detailed explanation of this matter will be described in the section of “Pharmacological Test” in Examples described below. In order to find the usefulness of the present compound as a pharmaceutical, a glucocorticoid receptor competitor assay was carried out by a fluorescence polarization method by using a glucocorticoid receptor competitor assay kit (manufactured by Invitrogen, cat No P2816) to study the glucocorticoid receptor binding activity of the present compound.
1. Evaluation Test for Binding Activity to Glucocorticoid Receptor (Hereinafter Referred to as “GR”)
In order to evaluate a binding activity to GR, a receptor competitor assay was carried out by a fluorescence polarization method. In the assay, a GR competitor assay kit (manufactured by Invitrogen, cat No. P2816) was used, and a procedure was carried out according to the protocol attached to the kit. Hereinafter, the specific method will be described.
(Preparation of Reagents)
GR screening buffer: A buffer containing 10 mM potassium phosphate (pH 7.4), 20 mM sodium molybdate (Na2MoO4), 0.1 mM ethylene diamine tetraacetic acid (EDTA), 5 mM dithiothreitol (DTT), 0.1 mM stabilizing peptide and 2% dimethylsulfoxide was prepared.
4×GS1 solution: Fluormone™ GS1, which is a fluorescent glucocorticoid ligand, was diluted with GR screening buffer, whereby a 4 nM solution was prepared.
4×GR solution: Recombinant human GR was diluted with GR screening buffer, whereby a 16 nM solution was prepared.
(Preparation of Test Compound Solution)
After a test compound was dissolved in dimethylsulfoxide, the resulting solution was diluted with GR screening buffer, whereby a 20 μM test compound solution was prepared.
(Test Method and Measurement Method)
1) The test compound solution was added in an amount of 10 μL into each well of a 384-well plate, and then, 4×GS1 solution and 4×GR solution were added in an amount of 5 μL into each well, respectively.
2) The plate was incubated in a dark place at room temperature for 2 to 4 hours.
3) By using a multimode plate reader, Analyst™ HT (manufactured by LJL Biosystems), fluorescence polarization of each well was measured. As the blank, a well containing GR screening buffer in place of the test compound and 4×GS1 solution was used.
4) The same procedure as that in the above 1) to 3) was carried out except that GR screening buffer was used in place of the test compound solution, and the obtained result was taken as the negative control.
5) The same procedure as that in the above 1) to 3) was carried out except that 2 mM dexamethasone was used in place of the test compound solution, and the obtained result was taken as the positive control.
(Calculation Equation of GR Binding Ratio)
A GR binding ratio (%) was calculated from the following equation. GR binding ratio (%)=100×[1−(fluorescence polarization of test compound solution−fluorescence polarization of positive control solution)/(fluorescence polarization of negative control solution−fluorescence polarization of positive control solution)] (Test Results and Discussion)
Background: In fluorescence polarisation assays a small probe gives low polarisation when free and higher when bound to something large.

Regarding `COc1cc(OC(=O)c2ccccc2)ccc1-c1ccc2c(c1COc1cc(F)ccc1C)C(C)=CC(C)(C)N2` [Compound 1-1, 6-(4-Benzoyloxy-2-methoxyphenyl)-5-(5-fluoro-2-methylphenoxymethyl)-2,2,4-trimethyl-1,2-dihydroquinoline], the inhibition at 10 µM came out at 94%.
Then `COc1cc(OC(=O)CNC(=O)OC(C)(C)C)ccc1-c1ccc2c(c1COc1cc(F)ccc1C)C(C)=CC(C)(C)N2` [Compound 1-2, 6-(4-t-Butoxycarbonylaminoacetoxy-2-methoxyphenyl)-5-(5-fluoro-2-methylphenoxymethyl)-2,2,4-trimethyl-1,2-dihydroquinoline], with 100%.
For `COc1ccc(C(=O)Oc2ccc(-c3ccc4c(c3COc3cc(F)ccc3C)C(C)=CC(C)(C)N4)c(OC)c2)cc1` [Compound 1-6], the inhibition at 10 µM was 100%.
Then `COc1cccc(C(=O)Oc2ccc(-c3ccc4c(c3COc3cc(F)ccc3C)C(C)=CC(C)(C)N4)c(OC)c2)c1` [Compound 1-7, 5-(5-Fluoro-2-methylphenoxymethyl)-6-[2-methoxy-4-(3-methoxybenzoyloxy)phenyl]-2,2,4-trimethyl-1,2-dihydroquinoline], with 100%; and `COc1ccccc1C(=O)Oc1ccc(-c2ccc3c(c2COc2cc(F)ccc2C)C(C)=CC(C)(C)N3)c(OC)c1` [Compound 1-8, 5-(5-Fluoro-2-methylphenoxymethyl)-6-[2-methoxy-4-(2-methoxybenzoyloxy)phenyl]-2,2,4-trimethyl-1,2-dihydroquinoline], with 100%.
Then `COc1cc(OC(=O)c2ccccc2Cl)ccc1-c1ccc2c(c1COc1cc(F)ccc1C)C(C)=CC(C)(C)N2` [Compound 1-11, 6-[4-(2-Chlorobenzoyloxy)-2-methoxyphenyl]-5-(5-fluoro-2-methylphenoxymethyl)-2,2,4-trimethyl-1,2-dihydroquinoline], with 100%.
For `COc1cc(OC(=O)C2CCCCC2)ccc1-c1ccc2c(c1COc1cc(F)ccc1C)C(C)=CC(C)(C)N2` [Compound 1-12, 6-(4-Cyclohexylcarbonyloxy-2-methoxyphenyl)-5-(5-fluoro-2-methylphenoxymethyl)-2,2,4-trimethyl-1,2-dihydroquinoline], the inhibition at 10 µM turned out to be 100%.
On to `COc1cc(OC(=O)c2cccnc2)ccc1-c1ccc2c(c1COc1cc(F)ccc1C)C(C)=CC(C)(C)N2` [Compound 1-13, 5-(5-Fluoro-2-methylphenoxymethyl)-6-[2-methoxy-4-(pyridin-3-ylcarbonyloxy)phenyl]-2,2,4-trimethyl-1,2-dihydroquinoline], for which the inhibition at 10 µM worked out at 100%.
Then `CCCC(=O)Oc1ccc(-c2ccc3c(c2COc2cc(F)ccc2C)C(C)=CC(C)(C)N3)c(OC)c1` [Compound 1-14, 6-(4-Butyryloxy-2-methoxyphenyl)-5-(5-fluoro-2-methylphenoxymethyl)-2,2,4-trimethyl-1,2-dihydroquinoline], with 100%; and `CCC(=O)Oc1ccc(-c2ccc3c(c2COc2cc(F)ccc2C)C(C)=CC(C)(C)N3)c(OC)c1` [Compound 1-16, 5-(5-Fluoro-2-methylphenoxymethyl)-6-(2-methoxy-4-propionyloxyphenyl)-2,2,4-trimethyl-1,2-dihydroquinoline], with 100%.
With `C=CC(=O)Oc1ccc(-c2ccc3c(c2COc2cc(F)ccc2C)C(C)=CC(C)(C)N3)c(OC)c1` [Compound 1-17, 6-(4-Acryloyloxy-2-methoxyphenyl)-5-(5-fluoro-2-methylphenoxymethyl)-2,2,4-trimethyl-1,2-dihydroquinoline], the inhibition at 10 µM turned out to be 100%.
Consider `COc1cc(OC(=O)c2ccsc2)ccc1-c1ccc2c(c1COc1cc(F)ccc1C)C(C)=CC(C)(C)N2` [Compound 1-18, 5-(5-Fluoro-2-methylphenoxymethyl)-6-[2-methoxy-4-(thiophen-3-ylcarbonyloxy)phenyl]-2,2,4-trimethyl-1,2-dihydroquinoline], for which the inhibition at 10 µM was 100%.
Take `COc1cc(OC(=O)c2ccco2)ccc1-c1ccc2c(c1COc1cc(F)ccc1C)C(C)=CC(C)(C)N2` [Compound 1-19, 5-(5-Fluoro-2-methylphenoxymethyl)-6-[4-(furan-2-ylcarbonyloxy)-2-methoxyphenyl]-2,2,4-trimethyl-1,2-dihydroquinoline]: the inhibition at 10 µM amounted to 100%.
Then `COc1cc(OC(=O)C(C)C)ccc1-c1ccc2c(c1COc1cc(F)ccc1C)C(C)=CC(C)(C)N2` [Compound 1-20, 5-(5-Fluoro-2-methylphenoxymethyl)-6-(4-isobutyryloxy-2-methoxyphenyl)-2,2,4-trimethyl-1,2-dihydroquinoline], with 100%.
As for `COc1cc(OC(=O)Cc2ccccc2)ccc1-c1ccc2c(c1COc1cc(F)ccc1C)C(C)=CC(C)(C)N2` [Compound 1-21, 5-(5-Fluoro-2-methylphenoxymethyl)-6-(2-methoxy-4-phenylacetoxyphenyl)-2,2,4-trimethyl-1,2-dihydroquinoline], the inhibition at 10 µM was found to be 100%.
Then `CCC(=O)Oc1ccc(OC)c(-c2ccc3c(c2COc2cc(F)ccc2C)C(C)=CC(C)(C)N3)c1` [Compound 1-27, 5-(5-Fluoro-2-methylphenoxylmethyl)-6-(2-methoxy-5-propionyloxyphenyl)-2,2,4-trimethyl-1,2-dihydroquinoline], with 84%; and `COc1cc(OC(=O)c2cccs2)ccc1-c1ccc2c(c1COc1cc(F)ccc1C)C(C)=CC(C)(C)N2` [Compound 1-31, 5-(5-Fluoro-2-methylphenoxymethyl)-6-[2-methoxy-4-(thiophen-2-ylcarbonyloxy)phenyl]-2,2,4-trimethyl-1,2-dihydroquinoline], with 100%; and `COc1cc(OC(=O)CCc2ccccc2)ccc1-c1ccc2c(c1COc1cc(F)ccc1C)C(C)=CC(C)(C)N2` [Compound 1-33, 5-(5-Fluoro-2-methylphenoxymethyl)-6-[2-methoxy-4-(3-phenylpropionyloxy)phenyl]-2,2,4-trimethyl-1,2-dihydroquinoline], with 89%.
As to `COc1cc(OC(=O)c2ccoc2)ccc1-c1ccc2c(c1COc1cc(F)ccc1C)C(C)=CC(C)(C)N2` [Compound 1-34, 5-(5-Fluoro-2-methylphenoxymethyl)-6-[4-(furan-3-ylcarbonyloxy)-2-methoxyphenyl]-2,2,4-trimethyl-1,2-dihydroquinoline], the inhibition at 10 µM turned out to be 100%.
Regarding `COc1cc(OC(=O)c2ccccn2)ccc1-c1ccc2c(c1COc1cc(F)ccc1C)C(C)=CC(C)(C)N2` [Compound 1-35, 5-(5-Fluoro-2-methylphenoxymethyl)-6-[2-methoxy-4-(pyridin-2-ylcarbonyloxy)phenyl]-2,2,4-trimethyl-1,2-dihydroquinoline], the inhibition at 10 µM is 100%.
For the compound `COc1cc(OC(=O)c2ccc([N+](=O)[O-])cc2)ccc1-c1ccc2c(c1COc1cc(F)ccc1C)C(C)=CC(C)(C)N2` [Compound 1-40, 5-(5-Fluoro-2-methylphenoxymethyl)-6-[2-methoxy-4-(4-nitrobenzoyloxy)phenyl]-2,2,4-trimethyl-1,2-dihydroquinoline], the inhibition at 10 µM turned out to be 100%.
